Results: the supplement of paper PMC10307832

How the values were obtained:
Assay in all cases: relative viability (nuclei count vs DMSO), 5 days (fraction); higher = more cells survive
EPLC-272H = tested on: EPLC-272H
Procedure, shortened: (§1)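 Medians of duplicate plates are given as relative viability. That measure is the nuclei count in treated wells divided by the count in vehicle wells. Counts were taken on 4× images of lung cancer cell lines in 1536-well plates, 5 days after pin-tool dosing the day after seeding with one drug alone or a fixed anchor-drug dose plus five library-drug doses (not always all listed) in √10 steps.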

HARA = tested on: HARA
Procedure, shortened: as §1

COR-L 105 = tested on: COR-L 105
Procedure, shortened: as §1

ChaGo-K-1 = tested on: ChaGo-K-1
Procedure, shortened: as §1

NCI-H1792 = tested on: NCI-H1792
Procedure, shortened: as §1

NCI-H1734 = tested on: NCI-H1734
Procedure, shortened: as §1

EKVX = tested on: EKVX
Procedure, shortened: as §1

NCI-H647 = tested on: NCI-H647
Procedure, shortened: as §1

NCI-H2405 = tested on: NCI-H2405
Procedure, shortened: as §1

RERF-LC-KJ = tested on: RERF-LC-KJ
Procedure, shortened: as §1

NCI-H1993 = tested on: NCI-H1993
Procedure, shortened: as §1

Question: Which results are given for Cc1cn(-c2cc(NC(=O)c3ccc(C)c(Nc4nccc(-c5cccnc5)n4)c3)cc(C(F)(F)F)c2)cn1 [Nilotinib] + Cc1nc(Nc2ncc(C(=O)Nc3c(C)cccc3Cl)s2)cc(N2CCN(CCO)CC2)n1 [Dasatinib] (partner 0.075 µM)?
Answer: relative viability (EPLC-272H; first compound 0.001 µM): 0.303; relative viability (EPLC-272H; first compound 0.003162 µM): 0.343; relative viability (EPLC-272H; first compound 0.01 µM): 0.364; relative viability (EPLC-272H; first compound 0.03162 µM): 0.226; relative viability (EPLC-272H; first compound 0.1 µM): 0.107; relative viability (HARA; first compound 0.001 µM): 0.325; relative viability (HARA; first compound 0.003162 µM): 0.345; relative viability (HARA; first compound 0.01 µM): 0.289; relative viability (HARA; first compound 0.03162 µM): 0.178; relative viability (HARA; first compound 0.1 µM): 0.112; relative viability (COR-L 105; first compound 0.001 µM): 0.374; relative viability (COR-L 105; first compound 0.003162 µM): 0.357; relative viability (COR-L 105; first compound 0.01 µM): 0.297; relative viability (COR-L 105; first compound 0.03162 µM): 0.345; relative viability (COR-L 105; first compound 0.1 µM): 0.222; relative viability (ChaGo-K-1; first compound 0.001 µM): 0.521; relative viability (ChaGo-K-1; first compound 0.003162 µM): 0.598; relative viability (ChaGo-K-1; first compound 0.01 µM): 0.634; relative viability (ChaGo-K-1; first compound 0.03162 µM): 0.372; relative viability (ChaGo-K-1; first compound 0.1 µM): 0.331; relative viability (NCI-H1792; first compound 0.001 µM): 0.614; relative viability (NCI-H1792; first compound 0.003162 µM): 0.591; relative viability (NCI-H1792; first compound 0.01 µM): 0.785; relative viability (NCI-H1792; first compound 0.1 µM): 1.36; relative viability (NCI-H1734; first compound 0.001 µM): 0.355; relative viability (NCI-H1734; first compound 0.003162 µM): 0.477; relative viability (NCI-H1734; first compound 0.01 µM): 0.506; relative viability (NCI-H1734; first compound 0.03162 µM): 0.345; relative viability (NCI-H1734; first compound 0.1 µM): 0.304; relative viability (EKVX; first compound 0.001 µM): 0.461; relative viability (EKVX; first compound 0.003162 µM): 0.477; relative viability (EKVX; first compound 0.01 µM): 0.554; relative viability (EKVX; first compound 0.03162 µM): 0.467; relative viability (EKVX; first compound 0.1 µM): 0.432; relative viability (NCI-H647; first compound 0.001 µM): 0.195; relative viability (NCI-H647; first compound 0.003162 µM): 0.274; relative viability (NCI-H647; first compound 0.01 µM): 0.262; relative viability (NCI-H647; first compound 0.03162 µM): 0.101; relative viability (NCI-H647; first compound 0.1 µM): 0.0706; relative viability (NCI-H2405; first compound 0.001 µM): 0.219; relative viability (NCI-H2405; first compound 0.003162 µM): 0.205; relative viability (NCI-H2405; first compound 0.01 µM): 0.214; relative viability (NCI-H2405; first compound 0.03162 µM): 0.221; relative viability (NCI-H2405; first compound 0.1 µM): 0.207; relative viability (RERF-LC-KJ; first compound 0.001 µM): 0.716; relative viability (RERF-LC-KJ; first compound 0.003162 µM): 0.947; relative viability (RERF-LC-KJ; first compound 0.01 µM): 0.833; relative viability (RERF-LC-KJ; first compound 0.03162 µM): 0.71; relative viability (RERF-LC-KJ; first compound 0.1 µM): 0.549; relative viability (NCI-H1993; first compound 0.001 µM): 0.625; relative viability (NCI-H1993; first compound 0.003162 µM): 0.546; relative viability (NCI-H1993; first compound 0.01 µM): 0.495; relative viability (NCI-H1993; first compound 0.03162 µM): 0.516; relative viability (NCI-H1993; first compound 0.1 µM): 0.627
